Measurements: ChEMBL document CHEMBL1909294, “Translating clinical findings into knowledge in drug safety evaluation--drug induced liver injury prediction system (DILIps)” (PLoS Comput Biol, 2011)
Where a SMILES comes first, the peptide text is derived from it. Bridges are numbered along the chain shown (N, C = ends). [ ]: non-standard residue; d: D form. The star is where a group is joined. Threoninol(2S,3R) = C[C@@H](O)[C@H](CO)N*

Columns and labels:
Hepatotoxicity [1] = system: Hepatotoxicity;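 as to HepSE Combined Scores: combined hepatic side effect score as listed in the training data of the Drug Induced Liver Injury Prediction System (DILIps)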;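 as to HepSE bilirubinemia: bilirubinemia hepatic side effect score drawn from the DILIps training data, a prediction system for drug-induced liver injury; call rule not given here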;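 as to HepSE cirrhosis: cirrhosis hepatic side effect score taken from the DILIps (drug-induced liver injury prediction) training set; call rule not given here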;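 as to HepSE elevated liver function tests: hepatic side effect score for raised liver function tests, as recorded in the DILIps training set used for predicting drug-induced liver injury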;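 as to HepSE hepatomegaly: hepatic side effect score for hepatomegaly, taken from the training set of the DILIps drug-induced liver injury prediction system; call rule not given here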;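 as to HepSE liver fatty: hepatic side effect score for fatty liver, taken from the DILIps training set for predicting drug-induced liver injury; call rule not given here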
Hepatotoxicity [2] = system: Hepatotoxicity; remark: listed apart in the source;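 as to HepSE Combined Scores: combined hepatic side effect score as listed in the training data of the Drug Induced Liver Injury Prediction System (DILIps)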;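 as to HepSE bilirubinemia: bilirubinemia hepatic side effect score drawn from the DILIps training data, a prediction system for drug-induced liver injury; call rule not given here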;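 as to HepSE cirrhosis: cirrhosis hepatic side effect score taken from the DILIps (drug-induced liver injury prediction) training set; call rule not given here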;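 as to HepSE elevated liver function tests: hepatic side effect score for raised liver function tests, as recorded in the DILIps training set used for predicting drug-induced liver injury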;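 as to HepSE hepatomegaly: hepatic side effect score for hepatomegaly, taken from the training set of the DILIps drug-induced liver injury prediction system; call rule not given here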;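 as to HepSE liver fatty: hepatic side effect score for fatty liver, taken from the DILIps training set for predicting drug-induced liver injury; call rule not given here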
Hepatotoxicity [3] = system: Hepatotoxicity; remark: listed apart in the source;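 as to HepSE Combined Scores: combined hepatic side effect score as listed in the training data of the Drug Induced Liver Injury Prediction System (DILIps)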;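 as to HepSE bilirubinemia: bilirubinemia hepatic side effect score drawn from the DILIps training data, a prediction system for drug-induced liver injury; call rule not given here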;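 as to HepSE cirrhosis: cirrhosis hepatic side effect score taken from the DILIps (drug-induced liver injury prediction) training set; call rule not given here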;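 as to HepSE elevated liver function tests: hepatic side effect score for raised liver function tests, as recorded in the DILIps training set used for predicting drug-induced liver injury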;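 as to HepSE hepatomegaly: hepatic side effect score for hepatomegaly, taken from the training set of the DILIps drug-induced liver injury prediction system; call rule not given here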;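 as to HepSE liver fatty: hepatic side effect score for fatty liver, taken from the DILIps training set for predicting drug-induced liver injury; call rule not given here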
Hepatotoxicity [4] = system: Hepatotoxicity; remark: listed apart in the source;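 as to HepSE Combined Scores: combined hepatic side effect score as listed in the training data of the Drug Induced Liver Injury Prediction System (DILIps)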;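 as to HepSE bilirubinemia: bilirubinemia hepatic side effect score drawn from the DILIps training data, a prediction system for drug-induced liver injury; call rule not given here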;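 as to HepSE cirrhosis: cirrhosis hepatic side effect score taken from the DILIps (drug-induced liver injury prediction) training set; call rule not given here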;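 as to HepSE elevated liver function tests: hepatic side effect score for raised liver function tests, as recorded in the DILIps training set used for predicting drug-induced liver injury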;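 as to HepSE hepatomegaly: hepatic side effect score for hepatomegaly, taken from the training set of the DILIps drug-induced liver injury prediction system; call rule not given here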;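 as to HepSE liver fatty: hepatic side effect score for fatty liver, taken from the DILIps training set for predicting drug-induced liver injury; call rule not given here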
Hepatotoxicity [5] = system: Hepatotoxicity; remark: listed apart in the source
Hepatotoxicity [6] = system: Hepatotoxicity; remark: listed apart in the source
Hepatotoxicity [7] = system: Hepatotoxicity; remark: listed apart in the source
Hepatotoxicity [8] = system: Hepatotoxicity; remark: listed apart in the source
Hepatotoxicity [9] = system: Hepatotoxicity; remark: listed apart in the source
Hepatotoxicity [10] = system: Hepatotoxicity; remark: listed apart in the source
Hepatotoxicity [11] = system: Hepatotoxicity; remark: listed apart in the source
Hepatotoxicity [12] = system: Hepatotoxicity; remark: listed apart in the source
Hepatotoxicity [13] = system: Hepatotoxicity; remark: listed apart in the source
Hepatotoxicity [14] = system: Hepatotoxicity; remark: listed apart in the source

Row | Structure (SMILES) | HepSE_Combined Scores (Hepatotoxicity [1]) | HepSE_elevated liver function tests (Hepatotoxicity [2]) | HepSE_bilirubinemia (Hepatotoxicity [3]) | HepSE_hepatomegaly (Hepatotoxicity [4]) | HepSE_cirrhosis (Hepatotoxicity [5]) | HepSE_liver fatty (Hepatotoxicity [6]) | HepSE_jaundice (Hepatotoxicity [7]) | HepSE_liver function tests abnormal (Hepatotoxicity [8]) | HepSE_hepatitis (Hepatotoxicity [9]) | HepSE_liver disease (Hepatotoxicity [10]) | HepSE_hepatic necrosis (Hepatotoxicity [11]) | HepSE_hepatic failure (Hepatotoxicity [12]) | HepSE_cholecystitis (Hepatotoxicity [13]) | HepSE_cholelithiasis (Hepatotoxicity [14]) | also measured
1 | CCCCN1C[C@H](O)[C@@H](O)[C@H](O)[C@H]1CO | 0 | 0 | 0 | 0 | 0 | 0 | 0 | 0 | 0 | 0 | 0 | 0 | 0 | 0 | –
2 | CC(C)(C)NC(=O)[C@@H]1C[C@@H]2CCCC[C@@H]2CN1C[C@@H](O)[C@H](Cc1ccccc1)NC(=O)[C@H](CC(N)=O)NC(=O)c1ccc2ccccc2n1 | – | – | – | – | – | – | – | – | – | – | – | – | – | – | HepSE_Combined Scores (Hepatotoxicity [1]; Liver): 7; HepSE_elevated liver function tests (Hepatotoxicity [2]; Liver): 1; HepSE_bilirubinemia (Hepatotoxicity [3]; Liver): 1; HepSE_hepatomegaly (Hepatotoxicity [4]; Liver): 1; HepSE_cirrhosis (Hepatotoxicity [5]; Liver): 0; HepSE_liver fatty (Hepatotoxicity [6]; Liver): 0; HepSE_jaundice (Hepatotoxicity [7]; Liver): 1; HepSE_liver function tests abnormal (Hepatotoxicity [8]; Liver): 0; HepSE_hepatitis (Hepatotoxicity [9]; Liver): 1; HepSE_liver disease (Hepatotoxicity [10]; Liver): 1; HepSE_hepatic necrosis (Hepatotoxicity [11]; Liver): 0; HepSE_hepatic failure (Hepatotoxicity [12]; Liver): 0; HepSE_cholecystitis (Hepatotoxicity [13]; Liver): 0; HepSE_cholelithiasis (Hepatotoxicity [14]; Liver): 1
3 | CC(=O)[C@@]1(O)CC[C@H]2[C@@H]3C[C@H](C)C4=CC(=O)CC[C@]4(C)[C@H]3CC[C@@]21C | – | – | – | – | – | – | – | – | – | – | – | – | – | – | HepSE_Combined Scores (Hepatotoxicity [1]; Liver): 5; HepSE_elevated liver function tests (Hepatotoxicity [2]; Liver): 0; HepSE_bilirubinemia (Hepatotoxicity [3]; Liver): 0; HepSE_hepatomegaly (Hepatotoxicity [4]; Liver): 1; HepSE_cirrhosis (Hepatotoxicity [5]; Liver): 0; HepSE_liver fatty (Hepatotoxicity [6]; Liver): 0; HepSE_jaundice (Hepatotoxicity [7]; Liver): 1; HepSE_liver function tests abnormal (Hepatotoxicity [8]; Liver): 0; HepSE_hepatitis (Hepatotoxicity [9]; Liver): 1; HepSE_liver disease (Hepatotoxicity [10]; Liver): 0; HepSE_hepatic necrosis (Hepatotoxicity [11]; Liver): 0; HepSE_hepatic failure (Hepatotoxicity [12]; Liver): 1; HepSE_cholecystitis (Hepatotoxicity [13]; Liver): 0; HepSE_cholelithiasis (Hepatotoxicity [14]; Liver): 1
4 | CO/N=C(\C(=O)N[C@@H]1C(=O)N2C(C(=O)[O-])=C(C[N+]3(C)CCCC3)CS[C@H]12)c1csc(N)n1 | 1 | 0 | 0 | 0 | 0 | 0 | 0 | 0 | 0 | 0 | 0 | 1 | 0 | 0 | –
5 | O=S(=O)(OC[C@H]1O[C@@H](O[C@]2(COS(=O)(=O)[O][Al]([OH])[OH])O[C@H](OS(=O)(=O)[O][Al]([OH])[OH])[C@@H](OS(=O)(=O)[O][Al]([OH])[OH])[C@@H]2OS(=O)(=O)[O][Al]([OH])[OH])[C@H](OS(=O)(=O)[O][Al]([OH])[OH])[C@@H](OS(=O)(=O)[O][Al]([OH])[OH])[C@@H]1OS(=O)(=O)[O][Al]([OH])[OH])[O][Al]([OH])[OH].[OH][Al]([OH])[OH].[OH][Al]([OH])[OH].[OH][Al]([OH])[OH].[OH][Al]([OH])[OH].[OH][Al]([OH])[OH].[OH][Al]([OH])[OH].[OH][Al]([OH])[OH].[OH][Al]([OH])[OH] | 0 | 0 | 0 | 0 | 0 | 0 | 0 | 0 | 0 | 0 | 0 | 0 | 0 | 0 | –
6 | CC(C)(C)NC(=O)[C@@H]1CN(Cc2cccnc2)CCN1C[C@@H](O)C[C@@H](Cc1ccccc1)C(=O)N[C@H]1c2ccccc2C[C@H]1O.O | 4 | 0 | 1 | 0 | 0 | 0 | 1 | 0 | 1 | 0 | 0 | 1 | 0 | 0 | –
7 | C[C@@H](O)[C@H](CO)NC(=O)[C@@H]1CSSC[C@H](NC(=O)[C@H](N)Cc2ccccc2)C(=O)N[C@@H](Cc2ccccc2)C(=O)N[C@H](Cc2c[nH]c3ccccc23)C(=O)N[C@@H](CCCCN)C(=O)N[C@@H]([C@@H](C)O)C(=O)N1 (H-[dF]CF[dW]KTC-{Threoninol(2S,3R)}; disulfide 2-7) | 6 | 0 | 1 | 0 | 0 | 1 | 1 | 0 | 1 | 0 | 0 | 0 | 1 | 1 | –
8 | CC(C)=CCN1CC[C@]2(C)c3cc(O)ccc3C[C@H]1[C@H]2C [(+)-PENTAZOCINE] | 0 | 0 | 0 | 0 | 0 | 0 | 0 | 0 | 0 | 0 | 0 | 0 | 0 | 0 | –
9 | Nc1nc(NC2CC2)c2ncn([C@H]3C=C[C@@H](CO)C3)c2n1 [ABACAVIR] | 3 | 1 | 0 | 0 | 0 | 1 | 0 | 0 | 0 | 0 | 0 | 1 | 0 | 0 | –
10 | CC(=O)NCCCS(=O)(=O)O [ACAMPROSATE] | 5 | 0 | 1 | 0 | 1 | 0 | 0 | 1 | 1 | 0 | 0 | 0 | 1 | 0 | –
11 | C[C@H]1O[C@H](O[C@H]2[C@H](O)[C@@H](O)[C@@H](O[C@H]3[C@H](O)[C@@H](O)C(O)O[C@@H]3CO)O[C@@H]2CO)[C@H](O)[C@@H](O)[C@@H]1N[C@H]1C=C(CO)[C@@H](O)[C@H](O)[C@H]1O (some centres undefined) [ACARBOSE] | 3 | 0 | 0 | 0 | 0 | 0 | 1 | 1 | 1 | 0 | 0 | 0 | 0 | 0 | –
